Data reported in PubChem BioAssay (NCI).
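Results reflect a 48-hour exposure of cells in 96-well plates to compound at five concentrations. TGI is the concentration that stops growth completely.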

What was measured:
Assay in all cases: growth of human tumour cells (NCI), 48 h
COLO 205 colon = test system: COLO 205 colon
U251 CNS = test system: U251 CNS
MCF7 breast = test system: MCF7 breast
SNB-19 CNS = test system: SNB-19 CNS
HOP-62 NSCLC = test system: HOP-62 NSCLC
HCT-15 colon = test system: HCT-15 colon
HOP-92 NSCLC = test system: HOP-92 NSCLC
CCRF-CEM leukemia = test system: CCRF-CEM leukemia
OVCAR-8 ovarian = test system: OVCAR-8 ovarian
SK-OV-3 ovarian = test system: SK-OV-3 ovarian
SW-620 colon = test system: SW-620 colon
CAKI-1 renal = test system: CAKI-1 renal
IGROV1 ovarian = test system: IGROV1 ovarian
OVCAR-4 ovarian = test system: OVCAR-4 ovarian
SK-MEL-28 melanoma = test system: SK-MEL-28 melanoma
A498 renal = test system: A498 renal
NCI-H23 lung = test system: NCI-H23 lung
NCI-H460 lung = test system: NCI-H460 lung
LOX IMVI melanoma = test system: LOX IMVI melanoma
DU-145 prostate = test system: DU-145 prostate

Question: How did the TGI (COLO 205 colon) turn out when `O=C(O)c1ccc(-c2nc3ccc(Cl)cc3[nH]2)cc1` was run?
Answer: > 100 µM

Question: And the TGI (U251 CNS)?
Answer: > 100 µM

Question: What about the TGI (MCF7 breast) of the same compound?
Answer: > 100 µM

Question: And the TGI (SNB-19 CNS)?
Answer: > 100 µM

Question: And the TGI (HOP-62 NSCLC)?
Answer: > 100 µM

Question: And the TGI (HCT-15 colon)?
Answer: > 100 µM

Question: What about the TGI (HOP-92 NSCLC) of the same compound?
Answer: > 100 µM

Question: And the TGI (CCRF-CEM leukemia)?
Answer: > 100 µM

Question: And the TGI (OVCAR-8 ovarian)?
Answer: > 100 µM

Question: And the TGI (SK-OV-3 ovarian)?
Answer: > 100 µM

Question: What about the TGI (SW-620 colon) of the same compound?
Answer: > 100 µM

Question: And the TGI (CAKI-1 renal)?
Answer: > 100 µM

Question: What about the TGI (IGROV1 ovarian) of the same compound?
Answer: > 100 µM

Question: Which results are given for `Cc1c(-c2nnc(-c3ccc(Cl)cc3)o2)c(=O)n(-c2ccccc2)n1C`?
Answer: TGI (COLO 205 colon): > 100 µM; TGI (OVCAR-4 ovarian): > 100 µM; TGI (SK-MEL-28 melanoma): > 100 µM; TGI (U251 CNS): > 100 µM; TGI (A498 renal): > 100 µM; TGI (SNB-19 CNS): > 100 µM; TGI (HOP-62 NSCLC): > 100 µM; TGI (HCT-15 colon): > 100 µM; TGI (HOP-92 NSCLC): > 100 µM; TGI (CCRF-CEM leukemia): > 100 µM; TGI (OVCAR-8 ovarian): > 100 µM; TGI (SK-OV-3 ovarian): > 100 µM; TGI (NCI-H23 lung): > 100 µM; TGI (SW-620 colon): > 100 µM; TGI (IGROV1 ovarian): > 100 µM; TGI (NCI-H460 lung): > 100 µM; TGI (LOX IMVI melanoma): > 100 µM

Question: How did the TGI (COLO 205 colon) turn out when `Cc1n[nH]c(=O)n1/N=C/c1cccs1` was run?
Answer: > 100 µM

Question: What about the TGI (OVCAR-4 ovarian) of the same compound?
Answer: > 100 µM

Question: And the TGI (SK-MEL-28 melanoma)?
Answer: > 100 µM

Question: And the TGI (U251 CNS)?
Answer: > 100 µM

Question: And the TGI (MCF7 breast)?
Answer: > 100 µM

Question: What about the TGI (A498 renal) of the same compound?
Answer: > 100 µM

Question: What about the TGI (SNB-19 CNS) of the same compound?
Answer: > 100 µM

Question: What about the TGI (HOP-62 NSCLC) of the same compound?
Answer: > 100 µM

Question: And the TGI (HCT-15 colon)?
Answer: > 100 µM

Question: What about the TGI (CCRF-CEM leukemia) of the same compound?
Answer: > 100 µM

Question: What about the TGI (OVCAR-8 ovarian) of the same compound?
Answer: > 100 µM

Question: And the TGI (SK-OV-3 ovarian)?
Answer: > 100 µM

Question: What about the TGI (DU-145 prostate) of the same compound?
Answer: > 100 µM

Question: And the TGI (NCI-H23 lung)?
Answer: > 100 µM

Question: What about the TGI (SW-620 colon) of the same compound?
Answer: > 100 µM

Question: What about the TGI (CAKI-1 renal) of the same compound?
Answer: > 100 µM

Question: And the TGI (NCI-H460 lung)?
Answer: > 100 µM

Question: And the TGI (LOX IMVI melanoma)?
Answer: > 100 µM

Question: Which results are given for `O=C1CCCC/C1=C1\C(=O)Nc2cc(F)ccc21`?
Answer: TGI (COLO 205 colon): > 100 µM; TGI (OVCAR-4 ovarian): > 100 µM; TGI (SK-MEL-28 melanoma): > 100 µM; TGI (U251 CNS): > 100 µM; TGI (A498 renal): > 100 µM; TGI (SNB-19 CNS): > 100 µM; TGI (HOP-62 NSCLC): > 100 µM; TGI (HCT-15 colon): > 100 µM; TGI (HOP-92 NSCLC): > 100 µM; TGI (CCRF-CEM leukemia): > 100 µM; TGI (OVCAR-8 ovarian): > 100 µM; TGI (SK-OV-3 ovarian): > 100 µM; TGI (NCI-H23 lung): > 100 µM; TGI (SW-620 colon): > 100 µM; TGI (CAKI-1 renal): > 100 µM; TGI (IGROV1 ovarian): > 100 µM; TGI (NCI-H460 lung): > 100 µM; TGI (LOX IMVI melanoma): > 100 µM

Question: Which TGI (COLO 205 colon) does the source give for `CN(C)c1nc2n(CCO)c(-c3ccccc3)c(-c3ccccc3)nc-2c(=O)n1` here?
Answer: > 100 µM

Question: What about the TGI (OVCAR-4 ovarian) of the same compound?
Answer: > 100 µM

Question: What about the TGI (SK-MEL-28 melanoma) of the same compound?
Answer: > 100 µM

Question: What about the TGI (U251 CNS) of the same compound?
Answer: > 100 µM

Question: What about the TGI (A498 renal) of the same compound?
Answer: > 100 µM

Question: And the TGI (SNB-19 CNS)?
Answer: > 100 µM

Question: What about the TGI (HOP-62 NSCLC) of the same compound?
Answer: > 100 µM

Question: What about the TGI (HCT-15 colon) of the same compound?
Answer: > 100 µM

Question: What about the TGI (HOP-92 NSCLC) of the same compound?
Answer: > 100 µM

Question: And the TGI (CCRF-CEM leukemia)?
Answer: > 100 µM

Question: And the TGI (OVCAR-8 ovarian)?
Answer: > 100 µM

Question: And the TGI (SK-OV-3 ovarian)?
Answer: > 100 µM

Question: What about the TGI (DU-145 prostate) of the same compound?
Answer: > 100 µM

Question: What about the TGI (NCI-H23 lung) of the same compound?
Answer: > 100 µM

Question: And the TGI (SW-620 colon)?
Answer: > 100 µM

Question: And the TGI (CAKI-1 renal)?
Answer: > 100 µM

Question: What about the TGI (IGROV1 ovarian) of the same compound?
Answer: > 100 µM

Question: What about the TGI (NCI-H460 lung) of the same compound?
Answer: > 100 µM

Question: What about the TGI (LOX IMVI melanoma) of the same compound?
Answer: > 100 µM

Question: What does the source list for `O=C(O)Cc1cccc2c1Oc1ccccc1S2`?
Answer: TGI (COLO 205 colon): > 100 µM; TGI (OVCAR-4 ovarian): > 100 µM; TGI (SK-MEL-28 melanoma): > 100 µM; TGI (U251 CNS): > 100 µM; TGI (A498 renal): > 100 µM; TGI (SNB-19 CNS): > 100 µM; TGI (HOP-62 NSCLC): > 100 µM; TGI (HCT-15 colon): > 100 µM; TGI (HOP-92 NSCLC): > 100 µM; TGI (CCRF-CEM leukemia): > 100 µM; TGI (OVCAR-8 ovarian): > 100 µM; TGI (SK-OV-3 ovarian): > 100 µM; TGI (NCI-H23 lung): > 100 µM; TGI (SW-620 colon): > 100 µM; TGI (IGROV1 ovarian): > 100 µM; TGI (NCI-H460 lung): > 100 µM; TGI (LOX IMVI melanoma): > 100 µM

Question: What does the source list for `COc1ccc(OC)c(C23CCCC(C2)N(C)CC3)c1` (configuration not stated)?
Answer: TGI (OVCAR-4 ovarian): 62.1 µM; TGI (U251 CNS): 27.6 µM; TGI (MCF7 breast): 32.1 µM; TGI (A498 renal): 89.9 µM; TGI (SNB-19 CNS): 49 µM; TGI (HCT-15 colon): > 100 µM; TGI (DU-145 prostate): 91.9 µM; TGI (NCI-H23 lung): > 100 µM; TGI (CAKI-1 renal): > 100 µM; TGI (NCI-H460 lung): 52 µM
